Experimental data published in publication PMC4392994, “Kinetic Characterization and Effect of Immobilized Thermostable β-Glucosidase in Alginate Gel Beads on Sugarcane Juice” (ISRN Biochemistry, 2014).

Tested on: T1, β-glucosidase
T1 construct: recombinant, cloned and expressed in E. coli DH5alpha; extracellular, from culture supernatant; partially purified (ammonium sulfate, dialysis); EC 3.2.1.21
Assay: p-nitrophenol release at […] nm, Lineweaver-Burk plot
Assay type: biochemical, Bacillus subtilis
Settings: free enzyme, partially purified; acetate buffer 100 mM, pH 5.0, 60 °C, 30 min; 1–15 mM substrate

Km: 3.6 mM
SMILES: O=[N+]([O-])c1ccc(O[C@@H]2O[C@H](CO)[C@@H](O)[C@H](O)[C@H]2O)cc1 [pNPG]
